Laboratory results as given in ChEMBL document CHEMBL1158198, “Indole Alkaloids of Haplophyton crooksii 1” (J Nat Prod, 1996).

Target: Acetylcholinesterase (Electrophorus electricus, UniProt O42275)
Test: Inhibition of electric eel AChE

Acetylcholinesterase, sequence (O42275 whole entry): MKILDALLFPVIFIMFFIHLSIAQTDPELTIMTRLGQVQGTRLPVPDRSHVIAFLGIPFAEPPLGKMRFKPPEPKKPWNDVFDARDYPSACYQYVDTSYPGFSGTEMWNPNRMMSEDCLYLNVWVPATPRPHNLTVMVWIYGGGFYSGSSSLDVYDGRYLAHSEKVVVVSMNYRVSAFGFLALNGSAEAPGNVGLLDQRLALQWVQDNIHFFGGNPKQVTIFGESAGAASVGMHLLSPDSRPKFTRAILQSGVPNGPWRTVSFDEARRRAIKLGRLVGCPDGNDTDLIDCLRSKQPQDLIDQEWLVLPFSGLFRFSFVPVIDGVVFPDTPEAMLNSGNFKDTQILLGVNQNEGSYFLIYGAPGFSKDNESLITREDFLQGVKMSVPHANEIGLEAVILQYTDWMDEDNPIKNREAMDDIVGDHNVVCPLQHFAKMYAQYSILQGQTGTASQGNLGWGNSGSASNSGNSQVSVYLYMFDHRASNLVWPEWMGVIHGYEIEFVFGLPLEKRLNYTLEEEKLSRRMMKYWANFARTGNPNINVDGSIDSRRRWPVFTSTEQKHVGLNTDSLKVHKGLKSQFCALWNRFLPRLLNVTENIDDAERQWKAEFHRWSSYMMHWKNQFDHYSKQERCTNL

Structure (SMILES)	IC50 [µM]
COc1c([C@@]23CCN(C)[C@]4(CCC(=O)N4c4c(O)cccc42)C3=O)cc2c(c1OC)N(C)[C@@H]1C=C[C@@]34CCCN5CC[C@@]21[C@]53OC(=O)C4 [HAPLOPHYTINE]	225
CCC(=O)N1c2c(O)cccc2[C@]23CCN4CCC[C@@]5(CC[C@@H]12)CC(=O)O[C@@]453 [CIMICINE]	241
CCC(=O)N1c2c(ccc(OC)c2O)[C@]23CCN4CCC[C@@]5(CC[C@@H]12)CC(=O)O[C@@]453 [CIMICIDINE]	197
CC[C@H]1[C@@H]2CCN3CC[C@@]4(C(=C2C(=O)OC)Nc2ccccc24)[C@@H]13 [TUBOTAIWINE]	108
C/C=C1/CN2CC[C@@]34c5ccccc5N(C)[C@H]5O[C@]3(O)[C@@H]2C[C@@H]1[C@]54C(=O)OC [LANCEOMAGINE]	383
COC(=O)[C@@H]1[C@H]2C[C@H]3c4[nH]c5ccccc5c4CCN3C[C@@H]2CC[C@@H]1O [YOHIMBINE]	431
C/C=C1/CN2CC[C@]34C(=C(C(=O)OC)[C@H]1C[C@H]23)Nc1ccccc14 [AKUAMMICINE]	221
C/C=C1/CN2[C@H]3Cc4c([nH]c5ccccc45)[C@@H]2C[C@@H]1[C@]3(CO)C(=O)OC [AKUAMMIDINE]	188
C/C=C1\CN2[C@H]3C[C@H]1C(C(=O)OC)[C@@H]2Cc1c3n(C)c2ccc(OC)cc12 (some centres not stated)	135
CCc1[nH]c2ccccc2c1CCN1CCCC(CC)C1 (configuration not stated) [DECARBOMETHOXYTETRAHYDROSECODINE]	203
C/C=C1/CN2CC[C@]34c5cccc(OC)c5N[C@H]3C[C@H]1C[C@H]24	57
CC[C@@H]1CCCN(CCc2c(C(C)=O)[nH]c3ccccc23)C1 [CROOKSIDINE]	175
